Measured values as given in paper PMC11191402, “High-Affinity NIR-Fluorescent Inhibitors for Tumor Imaging via Carbonic Anhydrase IX” (Bioconjugate Chemistry, 2024).
pKd: −log10 of the molar value.

Biological target: T1, CAIX expressed in live HeLa cells (Homo sapiens, UniProt Q16790)
T1 construct: an open reading frame for the full-length CAIX protein (1–459 amino acids) without a tag; expressed in transfected cells; host or cells: HeLa cells transfected with pCMV-CAIX (TurboFect), normoxia
Assay: NIR-fluorescent compound dosing on live HeLa cells (direct binding)
Description: To measure NIR-fluorescent compound binding to CAIX expressed in cancer cells, the GZ22-4 compound was applied in different concentrations to live HeLa cells grown under hypoxia and normoxia, as described in the Materials and Methods section, and was previously performed for the fluorescein-conjugated CAIX inhibitor GZ19-32.[16] […] The difference was hidden in the low signal-to-noise ratio.
To increase the amount of CAIX expression, the HeLa cells were transfected with the CAIX-encoding plasmid pCMV-CAIX. There was a dramatic increase in CAIX expression observed both in the dosing curve and fluorescence microscopy results. […] In the case of transfection, we can see both the specific CAIX-dependent signal and relatively weak nonspecific binding of the dye to unknown targets at concentrations above approximately 1 μM (shown as a dashed curve, increasing at the same concentrations as the nontransfected cell dosing curve).
Fluorescence values corresponding to the transfection effect were obtained by subtraction of nontransfected values from transfected fluorescence values, showing the resultant data points as open squares. […] However, the determination of the Kd via dosing curves at such high protein concentrations is not accurate and can only serve as an estimate of affinity.
Both assays were performed as previously described.[16] In brief, to measure fluorescent compound binding to CAIX expressed in live cells, HeLa cells were seeded in 12-well plates and either incubated in hypoxia for 3 days or transfected with the CAIX-coding plasmid pCMV-CAIX next day after seeding. The TurboFect transfection reagent (Thermo Fisher) was used for transfection. […] 150 μL of the suspension from each well was transferred to Thermo Scientific Nunc MicroWell 96-Well Optical-Bottom Plates for fluorescence and absorbance measurements. 759 nm excitation and 800 nm emission wavelengths were used to measure fluorescence on a Synergy HTX, BioTek plate reader. 650 nm wavelength was used for absorbance measurements.

- pKd (HeLa transfected with pCMV-CAIX, normoxia, nontransfected values subtracted, 120 nM CAIX, only an estimate of affinity, read-out: Kd from dosing curve on CAIX-transfected HeLa cells): 9.00
- concentration above which nonspecific binding of the dye to unknown targets is seen (transfected and nontransfected HeLa cell cultures): > 1 µM
Compound: CC1(C)C(/C=C/C2=C(Oc3ccc(CCC(=O)NCCOCCOCCOCCOCCOCCOCCOCCOCCOCCOCCOCCNC(=O)CCS(=O)(=O)c4c(F)c(F)c(S(N)(=O)=O)c(F)c4NC4CCCCCCC4)cc3)C(=C/C=C3\N(CCCCS(=O)(=O)[O-])c4ccccc4C3(C)C)/CCC2)=[N+](CCCCS(=O)(=O)[O-])c2ccccc21.[Na+] [GZ22-4, Sodium 4-((Z)-2-((E)-2-(2-(4-(43-((2-(Cyclooctylamino)-3,5,6-trifluoro-4-sulfamoylphenyl)sulfonyl)-3,41-dioxo-7,10,13,16,19,22,25,28,31,34,37-undecaoxa-4,40-diazatritetracontyl)phenoxy)-3-((E)-2-(3,3-dimethyl-1-(4-sulfonatobutyl)-3H-indol-1-ium-2-yl)vinyl)cyclohex-2-en-1-ylidene)ethylidene)-3,3-dimethylindolin-1-yl)butane-1-sulfonate]
- fluorescence signal in hypoxia vs normoxia (nontransfected live HeLa cells, plate reader): no difference in the fluorescence signal in hypoxia vs normoxia
